Data from paper PMC6949291, “An evolutionarily conserved iron-sulfur cluster underlies redox sensory function of the Chloroplast Sensor Kinase” (Communications Biology, 2020).

B1: Synechocystis sp. PCC 6803 Histidine kinase 2 (Hik2), reconstituted holoprotein (enzyme, UniProt P73276 1-434, looked up)
chain: MAGSISSMYSPSAGLISLCQSQVRLLQQGLRVDWCGVYLNQEETEQGLVPLVVSHGSTLVESESYGLISLPQGEVSPPMDDFSLPAVPVGVGQLSRRSRLEPPPFDADKRLVLPLVYGEEMVGLLVIHRSQGQWHGEEMMQLEAIAKSLAVACLLDQQQDWYRQAWEEQNQQYQWERQHWADLLHQLRNPLTALKTFSKLLLKRWHGDNKSQQVVEGIVRQGEHLQELLQSFEASQSQGPEAVPLLSSSPVTTIQVLPPADRVETMPLANFSLGEVLPPILLAHQAIAAERNITLTAQIALIDTVVMANRLALREVVNNLLDNGIKYTPNGGLVEVSLALEKVSSSGMDWATLAIADTGYGIPPEDQQKIFERNYRGVQGRGSINGTGLGLAIVADLVAQMGGKITVTSPNGLSRDPDQPGSTFTLWLRSGEQV
notes: Histidine kinase 2 (Hik2, slr1147), the cyanobacterial CSK homologue, Synechocystis sp; Each monomer carries one [3Fe-4S] cluster (holoprotein after reconstitution with iron and sulfide); also called Syn-CSK; holoSyn-CSK

Columns and labels:
Syn-CSK (Hik2) = target: T1, Syn-CSK (Hik2) (Synechocystis sp. PCC 6803, UniProt P73276); assay: autophosphorylation, autoradiography; format: biochemical; settings: 0.5 mM, MgCl2, pH 8, 22 °C, reductant of the [3Fe-4S] cluster, inhibitor of autokinase activity
T1 construct: octamer

[1] = target: the molecule itself; assay: SEC; Superdex 200 10/300GL Increase; air-oxidized protein eluted with 20 mM Tris-HCl pH 8 and 10 mM NaCl (legend; methods say 20 mM NaCl), or the same buffer with 2 mM sodium dithionite; mass from a calibration curve

Molecule	autophosphorylation with [γ-^32P]ATP, autoradiography (Syn-CSK (Hik2))	stoichiometry N [1]
Cc1c(C)c(O)c(C)c(C)c1O [duroquinol]	Treatment with reducing agents: dithionite, duroquinol, or decylPQH2 inhibit Syn-CSK	
B1		8
